# PubChem BioAssay (NCI)
# Values joined by “and” are separate entries in the source; they are usually repeats but may differ in a detail not shown here. Identical values can stand only once.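 Where inhibition never reached the appropriate level, the endpoint shown equals the highest concentration tested. Otherwise, values were interpolated linearly from a five-concentration, 48-hour dose response in 96-well plates. Abbreviation: GI50, concentration required for 50% inhibition of growth. TGI: total growth inhibition.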
# What was measured:
# Assay in all cases: inhibition of tumour cell growth, NCI panel, 48 h
# A549 NSCLC = tested on: A549 NSCLC
# DU-145 prostate = tested on: DU-145 prostate
# HL-60(TB) leukemia = tested on: HL-60(TB) leukemia
# HT29 colon = tested on: HT29 colon
# MCF7 breast = tested on: MCF7 breast
# MDA-MB-231 breast = tested on: MDA-MB-231 breast
# NCI-H226 lung = tested on: NCI-H226 lung
# OVCAR-5 ovarian = tested on: OVCAR-5 ovarian
# SK-MEL-28 melanoma = tested on: SK-MEL-28 melanoma
# SN12C renal = tested on: SN12C renal
Structure (SMILES),GI50 (A549 NSCLC),TGI (A549 NSCLC),GI50 (DU-145 prostate),TGI (DU-145 prostate),GI50 (HL-60(TB) leukemia),TGI (HL-60(TB) leukemia),GI50 (HT29 colon),TGI (HT29 colon) [µM],GI50 (MCF7 breast),TGI (MCF7 breast),GI50 (MDA-MB-231 breast),TGI (MDA-MB-231 breast),GI50 (NCI-H226 lung),TGI (NCI-H226 lung),GI50 (OVCAR-5 ovarian),TGI (OVCAR-5 ovarian),GI50 (SK-MEL-28 melanoma),TGI (SK-MEL-28 melanoma),GI50 (SN12C renal),TGI (SN12C renal)
O=C(COc1ccc(/C=C2\Oc3ccc4ccccc4c3C2=O)cc1)c1ccc([N+](=O)[O-])cc1,45 µM,> 100 µM,10.9 µM,23.1 µM,2.61 µM,16.2 µM,9.05 µM,24,1.71 µM,20.3 µM,19 µM,71.9 µM,16.7 µM,39.1 µM,16.4 µM,30.7 µM,19.4 µM,40.2 µM,10.5 µM,30.7 µM
Oc1ccc(NC(=S)Nc2ccccc2)cc1,> 100 µM,> 100 µM,> 100 µM,> 100 µM,> 100 µM,> 100 µM,> 100 µM,> 100,> 100 µM,> 100 µM,> 100 µM,> 100 µM,> 100 µM,> 100 µM,> 100 µM,> 100 µM,> 100 µM,> 100 µM,> 100 µM,> 100 µM
O=C(Nc1ccc(OS(=O)(=O)c2ccc(F)cc2)cc1)C12CC3CC(CC(C3)C1)C2,5.25 µM,> 100 µM,13.9 µM,99.2 µM,> 29 µM,> 100 µM,0.211 µM,> 100,0.641 µM,> 100 µM,4.58 µM,52.7 µM,15 µM,> 79.3 µM,26.1 µM,> 100 µM,28.1 µM,> 100 µM,> 43.6 µM,> 100 µM
COc1ccc(C(=O)/C=C/c2sc(Cl)nc2Cl)cc1,3.72 µM,19.5 µM,1.9 µM,3.55 µM,1.95 µM,4.63 µM,1.89 µM,4.66,1.75 µM,4 µM,1.33 µM,4.64 µM,0.655 µM,17.8 µM,3.01 µM,13.3 µM,2.57 µM,8.17 µM,0.408 µM,3.19 µM
C[C@@H](Nc1nc(N[C@H](C)C(F)(F)F)nc(-c2cccc(Cl)n2)n1)C(F)(F)F,50.3 µM,> 100 µM,41.6 µM,> 100 µM,> 100 µM,> 100 µM,> 100 µM,> 100,50.6 µM,> 100 µM,26.8 µM,> 100 µM,35.6 µM,> 100 µM,> 100 µM,> 100 µM,72.5 µM,> 100 µM,46.6 µM,> 100 µM
COC(=O)c1cc(-c2ccc3ccccc3c2)[nH]c(=O)c1C#N,,> 100 µM,,> 100 µM,,38.7 µM,,> 100,,> 100 µM,,> 100 µM,,> 100 µM,,> 100 µM,,> 100 µM,,> 100 µM
COc1cc2c(Oc3ccc(NC(=O)C4(C(=O)Nc5ccc(F)cc5)CC4)cc3F)ccnc2cc1OCCCN1CCOCC1,0.556 µM and 0.625 µM,1.88 µM and 2.2 µM,1.52 µM and 1.98 µM,4.39 µM and > 10 µM,0.164 µM and 0.389 µM,2.02 µM and 2.34 µM,0.387 µM,1.8,0.515 µM and 0.546 µM,2.03 µM and 3 µM,1.33 µM and 1.28 µM,2.72 µM and 2.74 µM,0.491 µM and 0.662 µM,2.07 µM and 3.96 µM,0.885 µM and 1.35 µM,2.7 µM and > 8.7 µM,1.12 µM and 1.25 µM,2.47 µM and 2.69 µM,0.266 µM and 0.259 µM,13.3 µM and > 10 µM
COc1ccc(-n2cc(-c3cc(OC)c(OC)c(OC)c3)nc2SCc2ccc(Cl)cc2)cc1OC,53.2 µM,> 100 µM,> 100 µM,> 100 µM,78 µM,> 100 µM,> 100 µM,> 100,92.6 µM,> 100 µM,> 100 µM,> 100 µM,> 100 µM,> 100 µM,> 100 µM,> 100 µM,> 100 µM,> 100 µM,> 100 µM,> 100 µM
CC[C@@]1(O)C(=O)OCc2c1cc1n(c2=O)Cc2cc3cc(Cl)ccc3nc2-1,0.00656 µM,1.42 µM and 1.21 µM,0.00491 µM,,0.00156 µM and 0.0131 µM,,0.0269 µM and 0.0187 µM,0.203,0.00364 µM,,0.094 µM,4.69 µM,0.00345 µM,0.108 µM and 0.117 µM,0.0635 µM and 0.0706 µM,0.363 µM and 0.318 µM,0.0542 µM and 0.0355 µM,4.52 µM and 8.65 µM,0.00207 µM,0.12 µM and 0.243 µM
Cc1cc(S(=O)(=O)/N=C(\N)Nc2cccc(O)c2)c(SCc2ccccc2)cc1Cl,14.8 µM,> 100 µM,24.4 µM,81.8 µM,12.9 µM,62.9 µM,20.6 µM,43.9,11.5 µM,78.9 µM,16.8 µM,41.2 µM,24 µM,62.3 µM,23.4 µM,53 µM,14.1 µM,31 µM,17.6 µM,38.2 µM
Cc1cc(=O)oc2c(C3=NN(C=O)C(c4ccccc4)C3)c(O)ccc12 (stereo not given),,> 32.8 µM,,> 100 µM,,> 100 µM,,> 100,,> 95.5 µM,,> 100 µM,,> 100 µM,,> 100 µM,,> 100 µM,,> 100 µM
CCCCCC/C=C/C#CCCCCCCCC(=O)O,,> 100 µM,,> 100 µM,,> 100 µM,,> 100,,> 100 µM,,> 100 µM,,> 100 µM,,> 100 µM,,> 100 µM,,> 100 µM
C=C1CCC2CC1C(C(=O)c1c[nH]c3ccccc13)=NC2(C)C (stereo not given),,> 100 µM,,> 100 µM,,> 100 µM,,> 100,,> 100 µM,,> 100 µM,,> 100 µM,,> 100 µM,,> 100 µM,,> 100 µM
C[C@H]1CCC/C=C/C2CC(OC(=O)CN(C)C)CC2C(OC(=O)CN(C)C)/C=C/C(=O)O1 (stereo not given in full),0.68 µM,> 100 µM,0.615 µM,> 100 µM,0.682 µM,7.47 µM,0.342 µM,3.8,0.31 µM,1.53 µM,0.148 µM,0.806 µM,0.133 µM,0.44 µM,0.44 µM,4.05 µM,0.472 µM,> 100 µM,0.391 µM,8.33 µM
C=CC(=O)N[C@@H]1CN(c2nc(Nc3cn(C)nc3OC)c3ncn(C)c3n2)C[C@H]1F,24.5 µM,> 100 µM,4.02 µM,> 91.7 µM,27.8 µM,78.5 µM,20.9 µM,> 83.1,17.7 µM,> 100 µM,23.8 µM,> 88.2 µM,> 83 µM,> 100 µM,11.5 µM,> 100 µM,50 µM,> 100 µM,45.9 µM,> 100 µM
Cc1c2cnccc2c(C)c2c1c1cc(O)ccc1n2C(C)C,0.744 µM,8.17 µM,0.688 µM,7.06 µM,0.42 µM,3.13 µM,3.11 µM,11.5,1.37 µM,4.82 µM,1.51 µM,7.58 µM,2.82 µM,11.6 µM,2.42 µM,9.46 µM,1.23 µM,2.96 µM,0.647 µM,6.06 µM
Cc1cccc2c(C3=C(c4cn(C)c5ccccc45)C(=O)NC3=O)cn(C)c12,> 25 µM,> 25 µM,> 25 µM,> 25 µM,> 25 µM,> 25 µM,> 13.8 µM,> 25,9.03 µM,> 25 µM,> 19.6 µM,> 25 µM,> 25 µM,> 25 µM,> 25 µM,> 25 µM,17.5 µM,> 25 µM,> 25 µM,> 25 µM
CC1(C)OB(c2ccc(N(CCOS(C)(=O)=O)CCOS(C)(=O)=O)cc2)OC1(C)C,15.1 µM,> 85.8 µM,23.3 µM,55.7 µM,2.85 µM,39.3 µM,30 µM,> 100,17.8 µM,> 83.8 µM,> 43.5 µM,> 65.2 µM,9.02 µM,33.6 µM,25.4 µM,48.3 µM,34 µM,> 83.7 µM,9.38 µM,> 54.6 µM
Cc1cc(F)c(C(=O)Nc2cccc(-c3nncn3C(C)C)n2)cc1-n1cnc(C2CC2)c1,15.2 µM,74 µM,,> 100 µM,16.2 µM,45.3 µM,18.2 µM,> 100,9.48 µM,55.2 µM,18.1 µM,91.5 µM,19.5 µM,80.7 µM,19.9 µM,> 100 µM,20.9 µM,64.7 µM,15.6 µM,62.4 µM
COc1ccc2[nH]c(Cl)c(/C=C3/C(=O)Nc4ccccc43)c2c1,1.2 µM,5.36 µM,0.279 µM,2.35 µM,0.449 µM,2.84 µM,0.316 µM,,0.79 µM,> 38.5 µM,< 0.0477 µM,2.95 µM,0.782 µM,19.2 µM,0.554 µM,3.12 µM,0.459 µM,5.47 µM,0.339 µM,14.7 µM
